Assay results as given in patent US20220388992A1, “JAK INHIBITOR COMPOUND AND USE THEREOF” (priority 2019, published 2022).

Legend:
Assay type in all cases: biochemical
JAK2 = JAK2 (Homo sapiens, UniProt O60674); assay: JAK2 kinase inhibition, ADP-Glo luminescence assay; design: purchased Carna 08-045; settings: substrate IGF1Rtide
From the text: (§1) A drug screening system based on kinases JAK1, JAK2, JAK3, and TYK2 was used to detect the inhibitory ability of small molecule compounds on kinase activity. A kinase undergoes an enzymatic reaction with its substrates IRS 1, IGF1Rtide, and Poly (4:1 Glu, Tyr), consuming ATP to produce ADP, wherein the ADP-Glo reagent and luminescence method were used to detect the amount of the product to reflect the activity of the kinase. 2.1 Experimental Materials and Instruments
(§2) a) Dilute a compound solution to be tested by 5 times with 100% DMSO. […] The final concentration of DMSO is 0.5%. d) Transfer 4 μL of ADP-Glo to the 384-well reaction plate, centrifuge it at 1000 rpm/min for 1 min, and incubate it at 25° C. for 40 min. e) Transfer 8 μL of Detection solution to the 384-well reaction plate, centrifuge it at 1000 rpm/min for 1 min, and incubate it at 25° C. for 40 min. f) Use Biotek multi-function plate reader to read the RLU (Relative luminescence unit) signal. The signal intensity is used to characterize the degree of kinase activity.
(§3) IC50 (half inhibitory concentration) of the compound can be obtained using the following nonlinear fitting formula:
(§4) Y=Bottom+(Top−Bottom)/(1+10^((Log IC50−X)*HillSlope))

JAK3 = target: T1, JAK3 (Homo sapiens, UniProt P52333); assay: JAK3 kinase inhibition, ADP-Glo luminescence assay; settings: substrate Poly (4:1 Glu, Tyr)
T1 construct: purchased Carna 08-046
T1 sequence (P52333 795-1124 limits assumed): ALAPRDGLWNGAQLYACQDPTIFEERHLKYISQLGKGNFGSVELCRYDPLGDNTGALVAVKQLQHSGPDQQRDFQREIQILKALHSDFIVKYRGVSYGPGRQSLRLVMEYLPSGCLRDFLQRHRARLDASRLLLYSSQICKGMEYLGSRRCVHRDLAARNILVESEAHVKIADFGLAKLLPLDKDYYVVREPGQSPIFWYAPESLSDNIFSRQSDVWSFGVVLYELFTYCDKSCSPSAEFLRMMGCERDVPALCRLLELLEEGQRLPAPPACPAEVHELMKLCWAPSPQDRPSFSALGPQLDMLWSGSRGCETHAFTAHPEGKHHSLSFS
From the text: as §1, §2, §3, §4

TYK2 = target: T2, TYK2 (Homo sapiens, UniProt P29597); assay: TYK2 kinase inhibition, ADP-Glo luminescence assay; settings: substrate IRS1
T2 sequence (P29597 871-1187 limits assumed): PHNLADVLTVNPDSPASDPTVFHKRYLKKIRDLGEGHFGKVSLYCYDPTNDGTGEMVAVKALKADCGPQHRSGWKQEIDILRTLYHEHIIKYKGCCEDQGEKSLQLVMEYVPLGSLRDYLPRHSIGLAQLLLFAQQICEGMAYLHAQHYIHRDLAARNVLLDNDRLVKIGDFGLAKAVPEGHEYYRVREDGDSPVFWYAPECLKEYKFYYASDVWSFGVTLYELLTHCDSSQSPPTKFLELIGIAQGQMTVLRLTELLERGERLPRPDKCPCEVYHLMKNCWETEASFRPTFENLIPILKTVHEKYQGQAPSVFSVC
From the text: as §1, §2, §3, §4

JAK1 = JAK1 (Homo sapiens, UniProt P23458); assay: JAK1 kinase inhibition, ADP-Glo luminescence assay; design: purchased Carna 08-144; settings: substrate IRS1
JAK1, sequence (P23458 850-1154 limits assumed): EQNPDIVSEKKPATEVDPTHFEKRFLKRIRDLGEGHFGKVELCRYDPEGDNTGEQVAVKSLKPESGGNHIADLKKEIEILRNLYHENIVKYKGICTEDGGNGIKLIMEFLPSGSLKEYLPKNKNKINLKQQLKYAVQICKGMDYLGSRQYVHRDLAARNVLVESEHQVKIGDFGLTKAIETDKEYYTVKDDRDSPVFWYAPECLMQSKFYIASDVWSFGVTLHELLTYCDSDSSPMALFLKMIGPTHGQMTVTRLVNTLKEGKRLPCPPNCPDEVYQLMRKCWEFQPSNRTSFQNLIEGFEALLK
From the text: as §1, §2, §3, §4

JAK2, sequence (O60674 826-1132 limits assumed): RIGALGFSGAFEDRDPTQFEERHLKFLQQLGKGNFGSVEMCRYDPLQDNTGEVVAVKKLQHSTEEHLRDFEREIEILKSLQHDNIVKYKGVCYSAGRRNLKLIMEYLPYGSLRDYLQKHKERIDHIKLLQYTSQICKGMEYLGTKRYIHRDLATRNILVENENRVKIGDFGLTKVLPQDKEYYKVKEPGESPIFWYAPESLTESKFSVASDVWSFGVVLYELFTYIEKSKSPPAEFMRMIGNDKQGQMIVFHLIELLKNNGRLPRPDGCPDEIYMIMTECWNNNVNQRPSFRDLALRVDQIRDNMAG

`CCc1cc(O)c(F)cc1-c1ccc2c(-c3nc(CNC(=O)C4CCN(C)C4)c[nH]3)n[nH]c2c1` (centres unmarked) [Ex-29, N-((2-(6-(2-ethyl-5-fluoro-4-hydroxyphenyl)-1H-indazol-3-yl)-1H-imidazol-4-yl)methyl)-1-methylpyrrolidine-3-carboxamide] showed an IC50 (JAK2) of 13.3 nM, an IC50 (JAK3) of 9.3 nM and an IC50 (TYK2) of 16.8 nM. It also gave an IC50 (JAK1) of 1.1 nM.

Compound `CCc1cc(O)c(F)cc1-c1ccc2c(-c3nc(CNC(=O)N4CC[C@@H](O)C4)c[nH]3)n[nH]c2c1` [Ex-22, (R)—N-((2-(6-(2-ethyl-5-fluoro-4-hydroxyphenyl)-1H-indazol-3-yl)-1H-imidazol-4-yl)methyl)-3-hydroxypyrrolidine-1-carboxamide] has an IC50 (JAK2) of 0.68 nM, an IC50 (JAK3) of 0.48 nM and an IC50 (TYK2) of 1.1 nM. For the same compound, the IC50 (JAK1) was 0.14 nM.

Compound `CCc1cc(O)c(F)cc1-c1ccc2c(-c3nc(CNC(=O)OC)c[nH]3)n[nH]c2c1` [Ex-26, methyl ((2-(6-(2-ethyl-5-fluoro-4-hydroxyphenyl)-1H-indazol-3-yl)-1H-imidazol-4-yl)methyl)carbamate] has an IC50 (JAK2) of 0.43 nM, an IC50 (JAK3) of 0.57 nM and an IC50 (TYK2) of 1.7 nM. It also gave an IC50 (JAK1) of 0.43 nM.

With `CCc1cc(O)c(F)cc1-c1ccc2c(-c3nc(CNc4ccccn4)c[nH]3)n[nH]c2c1` [Ex-33, 5-ethyl-2-fluoro-4-(3-(4-((pyridin-2-ylamino)methyl)-1H-imidazol-2-yl)-1H-indazol-6-yl)phenol] the IC50 (JAK2) was 1.4 nM, the IC50 (JAK3) was 1.7 nM and the IC50 (TYK2) was 13.3 nM. The IC50 (JAK1) was 0.58 nM.

With `CCc1cc(O)c(F)cc1-c1ccc2c(-c3nc(CNc4cnn(C)c4)c[nH]3)n[nH]c2c1` [Ex-15, 5-ethyl-2-fluoro-4-(3-(4-(((1-methyl-1H-pyrazol-4-yl)amino)methyl)-1H-imidazol-2-yl)-1H-indazol-6-yl)phenol] the IC50 (JAK2) was 0.78 nM, the IC50 (JAK3) was 0.76 nM and the IC50 (TYK2) was 4.9 nM. For the same compound, the IC50 (JAK1) was 0.29 nM.

For `CCc1cc(O)c(F)cc1-c1ccc2c(-c3nc(CNC(=O)N4CCC(O)CC4)c[nH]3)n[nH]c2c1` [Ex-20, N-((2-(6-(2-ethyl-5-fluoro-4-hydroxyphenyl)-1H-indazol-3-yl)-1H-imidazol-4-yl)methyl)-4-hydroxypiperidine-1-carboxamide], the IC50 (JAK2) was 0.53 nM, the IC50 (JAK3) was 0.43 nM and the IC50 (TYK2) was 1 nM. For the same compound, the IC50 (JAK1) was 0.1 nM.

`CCc1cc(O)c(F)cc1-c1ccc2c(-c3nc(CNC4CCN(C)C4)c[nH]3)n[nH]c2c1` (centres unmarked) [Ex-35, 5-ethyl-2-fluoro-4-(3-(4-(((1-methylpyrrolidin-3-yl)amino)methyl)-1H-imidazol-2-yl)-1H-indazol-6-yl)phenol] was tested, and the IC50 (JAK2) was 0.63 nM, the IC50 (JAK3) was 0.85 nM and the IC50 (TYK2) was 5.2 nM. It also gave an IC50 (JAK1) of 0.32 nM.

In the case of `CCc1cc(O)c(F)cc1-c1ccc2c(-c3nc(CN(C)C(=O)N4CC[C@@H](O)C4)c[nH]3)n[nH]c2c1` [Ex-21, (R)—N-((2-(6-(2-ethyl-5-fluoro-4-hydroxyphenyl)-1H-indazol-3-yl)-1H-imidazol-4-yl)methyl)-3-hydroxy-N-methylpyrrolidine-1-carboxamide], the IC50 (JAK2) is reported as 0.72 nM, the IC50 (JAK3) is reported as 0.64 nM and the IC50 (TYK2) is reported as 6.9 nM. The IC50 (JAK1) was 0.21 nM.

`CCc1cc(O)c(F)cc1-c1ccc2c(-c3nc(CNC4CCC4)c[nH]3)n[nH]c2c1` [Ex-31, 4-(3-(4-((cyclobutylamino)methyl)-1H-imidazol-2-yl)-1H-indazol-6-yl)-5-ethyl-2-fluorophenol] was tested, and the IC50 (JAK2) was 1.6 nM, the IC50 (JAK3) was 3.7 nM and the IC50 (TYK2) was 17.3 nM. The IC50 (JAK1) was 0.1 nM.

For `CCc1cc(O)c(F)cc1-c1ccc2c(-c3nc(CNC(=O)c4cnc(N5CCCCC5)cn4)c[nH]3)n[nH]c2c1` [MDI-3, N-((2-(6-(2-ethyl-5-fluoro-4-hydroxyphenyl)-1H-indazol-3-yl)-1H-imidazol-4-yl)methyl)-5-(piperidin-1-yl)pyrazine-2-carboxamide], the IC50 (JAK2) was 1.35 nM, the IC50 (JAK3) was 1.41 nM and the IC50 (TYK2) was 32.2 nM. The IC50 (JAK1) was 1.96 nM.

Work on `CCc1cc(O)c(F)cc1-c1ccc2c(-c3nc(CNS(=O)(=O)CC)c[nH]3)n[nH]c2c1` [Ex-19, N-((2-(6-(2-ethyl-5-fluoro-4-hydroxyphenyl)-1H-indazol-3-yl)-1H-imidazol-4-yl)methyl)ethanesulfonamide] yielded an IC50 (JAK2) of 3.3 nM, an IC50 (JAK3) of 2.3 nM and an IC50 (TYK2) of 6.4 nM. It also gave an IC50 (JAK1) of 0.33 nM.

In the case of `CCc1cc(O)c(F)cc1-c1ccc2c(-c3nc(CNC(=O)C4CCC4)c[nH]3)n[nH]c2c1` [Ex-28, N-((2-(6-(2-ethyl-5-fluoro-4-hydroxyphenyl)-1H-indazol-3-yl)-1H-imidazol-4-yl)methyl)cyclobutanecarboxamide], the IC50 (JAK2) is reported as 0.86 nM, the IC50 (JAK3) is reported as 1 nM and the IC50 (TYK2) is reported as 1.6 nM. The IC50 (JAK1) was 0.14 nM.

`CCc1cc(O)c(F)cc1-c1ccc2c(-c3nc(CN4CCN(CC)CC4)c[nH]3)n[nH]c2c1` [Ex-38, 5-ethyl-4-(3-(4-((4-ethylpiperazin-1-yl)methyl)-1H-imidazol-2-yl)-1H-indazol-6-yl)-2-fluorophenol] was tested, and the IC50 (JAK2) was 1.2 nM, the IC50 (JAK3) was 2.1 nM and the IC50 (TYK2) was 11 nM. The IC50 (JAK1) was 0.1 nM.

`CCc1cc(O)c(F)cc1-c1ccc2c(-c3nc(CNC4CCOC4)c[nH]3)n[nH]c2c1` (centres unmarked) [Ex-32, 5-ethyl-2-fluoro-4-(3-(4-(((tetrahydrofuran-3-yl)amino)methyl)-1H-imidazol-2-yl)-1H-indazol-6-yl) phenol] showed an IC50 (JAK2) of 0.89 nM, an IC50 (JAK3) of 1.9 nM and an IC50 (TYK2) of 11.6 nM. For the same compound, the IC50 (JAK1) was 0.27 nM.

For `CCc1cc(O)c(F)cc1-c1ccc2c(-c3nc(CNCC4CC4)c[nH]3)n[nH]c2c1` [Ex-17, 4-(3-(4-(((cyclopropylmethyl)amino)methyl)-1H-imidazol-2-yl)-1H-indazol-6-yl)-5-ethyl-2-fluoro phenol], the IC50 (JAK2) was 1.2 nM, the IC50 (JAK3) was 2.9 nM and the IC50 (TYK2) was 6.5 nM. The IC50 (JAK1) was 0.36 nM.

Compound `CCc1cc(O)c(F)cc1-c1ccc2c(-c3nc(CN4CCC(C#N)CC4)c[nH]3)n[nH]c2c1` [Ex-11, 1-((2-(6-(2-ethyl-5-fluoro-4-hydroxyphenyl)-1H-indazol-3-yl)-1H-imidazol-4-yl)methyl)piperidine-4-nitrile] has an IC50 (JAK2) of 0.85 nM, an IC50 (JAK3) of 2.5 nM and an IC50 (TYK2) of 18.4 nM. For the same compound, the IC50 (JAK1) was 0.31 nM.

For `CCc1cc(O)c(F)cc1-c1ccc2c(-c3nc(CN4CCC(C#N)C4)c[nH]3)n[nH]c2c1` (centres unmarked) [Ex-12, 1-((2-(6-(2-ethyl-5-fluoro-4-hydroxyphenyl)-1H-indazol-3-yl)-1H-imidazol-4-yl)methyl)pyrrolidine-3-carbonitrile], the IC50 (JAK2) was 0.74 nM, the IC50 (JAK3) was 0.67 nM and the IC50 (TYK2) was 6.1 nM. It also gave an IC50 (JAK1) of 0.1 nM.

`CCc1cc(O)c(F)cc1-c1ccc2c(-c3nc(CNC(=O)OCCC#N)c[nH]3)n[nH]c2c1` [Ex-27, 2-cyanoethyl ((2-(6-(2-ethyl-5-fluoro-4-hydroxyphenyl)-1H-indazol-3-yl)-1H-imidazol-4-yl)methyl) carbamate] showed an IC50 (JAK2) of 6.3 nM, an IC50 (JAK3) of 4.4 nM and an IC50 (TYK2) of 9.2 nM. It also gave an IC50 (JAK1) of 0.92 nM.

In the case of `CCc1cc(O)c(F)cc1-c1ccc2c(-c3nc(CNS(C)(=O)=O)c[nH]3)n[nH]c2c1` [MDI-304, N-((2-(6-(2-ethyl-5-fluoro-4-hydroxyphenyl)-1H-indazol-3-yl)-1H-imidazol-4-yl)methyl)methanesulfonamide], the IC50 (JAK2) is reported as 1.32 nM, the IC50 (JAK3) is reported as 0.912 nM and the IC50 (TYK2) is reported as 8.26 nM. For the same compound, the IC50 (JAK1) was 0.172 nM.

Work on `CCc1cc(O)c(F)cc1-c1ccc2c(-c3nc(CNS(=O)(=O)C4CC4)c[nH]3)n[nH]c2c1` [Ex-18, N-((2-(6-(2-ethyl-5-fluoro-4-hydroxyphenyl)-1H-indazol-3-yl)-1H-imidazol-4-yl)methyl)cyclopropanesulfonamide] yielded an IC50 (JAK2) of 1.4 nM, an IC50 (JAK3) of 1.1 nM and an IC50 (TYK2) of 3.7 nM. It also gave an IC50 (JAK1) of 0.15 nM.

Work on `CCc1cc(O)c(F)cc1-c1ccc2c(-c3nc(CN4CCC(O)CC4)c[nH]3)n[nH]c2c1` [Ex-9, 1-((2-(6-(2-ethyl-5-fluoro-4-hydroxyphenyl)-1H-indazol-3-yl)-1H-imidazol-4-yl)methyl)piperidin-4-ol] yielded an IC50 (JAK2) of 1.5 nM, an IC50 (JAK3) of 1.3 nM and an IC50 (TYK2) of 19.8 nM. For the same compound, the IC50 (JAK1) was 1.3 nM.

Work on `CCc1cc(O)c(F)cc1-c1ccc2c(-c3nc(CNC(=O)N4CCOCC4)c[nH]3)n[nH]c2c1` [Ex-36, N-((2-(6-(2-ethyl-5-fluoro-4-hydroxyphenyl)-1H-indazol-3-yl)-1H-imidazol-4-yl)methyl)morpholine-4-carboxamide] yielded an IC50 (JAK2) of 0.55 nM, an IC50 (JAK3) of 0.48 nM and an IC50 (TYK2) of 0.83 nM. The IC50 (JAK1) was 0.11 nM.

`CCc1cc(O)c(F)cc1-c1ccc2c(-c3nc(CNC(=O)c4cnn(C)c4)c[nH]3)n[nH]c2c1` [Ex-34, N-((2-(6-(2-ethyl-5-fluoro-4-hydroxyphenyl)-1H-indazol-3-yl)-1H-imidazol-4-yl)methyl)-1-methyl-1H-pyrazole-4-carboxamide] gave an IC50 (JAK2) of 1 nM, an IC50 (JAK3) of 0.5 nM and an IC50 (TYK2) of 1.1 nM. For the same compound, the IC50 (JAK1) was 0.15 nM.
